Source: patent US20250326752A1, “PIPERIDINYL-METHYL-PURINE AMINE SALTS, CRYSTALLINE FORMS, AND THEIR USE IN TREATING MEDICAL DISEASES AND CONDITIONS” (K36 Therapeutics, Inc., priority 2022, published 2025)
Counter-ions that a name gives are not always drawn.

What was measured:
[1] = hygroscopicity by dynamic vapor sorption; format: physicochemical; conditions: transitioned from 0% to 90% relative humidity
[2] = water solubility of the crystalline form in phosphate buffer; format: physicochemical; conditions: for solubility: pH 6.8 (phosphate buffer; 50 mM where stated)
[3] = aqueous buffer, read-out: water solubility of (S)-1-((R)-3-amino-1-(4-((6-amino-9H-purin-9-yl)methyl)-6-(2,5-difluoro-4-methoxyphenyl)pyridin-3-yl)piperidin-3-yl)-2,2-difluoroethan-1-ol
[4] = pH 7.0 (phosphate buffer), 37° C., after 30 minutes

Row | SMILES | increase in weight (hygroscopicity by dynamic vapor sorption) [1] | water solubility of (S)-1-((R)-3-amino-1-(4-((6-amino-9H-purin-9-yl)methyl)-6-(2,5-difluoro-4-methoxyphenyl)pyridin-3-yl)piperidin-3-yl)-2,2-difluoroethan-1-ol [2, 4] | also measured
1 | COc1cc(F)c(-c2cc(Cn3cnc4c(N)ncnc43)c(N3CCC[C@](N)([C@H](O)C(F)F)C3)cn2)cc1F.Cl [Example 1, (S)-1-((R)-3-amino-1-(4-((6-amino-9H-purin-9-yl)methyl)-6-(2,5-difluoro-4-methoxyphenyl)pyridin-3-yl)piperidin-3-yl)-2,2-difluoroethan-1-ol Hydrochloric Acid Salt] | 16% |  | solubility [2, 3]: 220 µg/mL
2 | COc1cc(F)c(-c2cc(Cn3cnc4c(N)ncnc43)c(N3CCC[C@](N)([C@H](O)C(F)F)C3)cn2)cc1F [Example 2, (S)-1-((R)-3-amino-1-(4-((6-amino-9H-purin-9-yl)methyl)-6-(2,5-difluoro-4-methoxyphenyl)pyridin-3-yl)piperidin-3-yl)-2,2-difluoroethan-1-ol Hydrochloric Acid Salt] | 1.8% |  | solubility [2, 3]: 210 µg/mL
3 | COc1cc(F)c(-c2cc(Cn3cnc4c(N)ncnc43)c(N3CCC[C@](N)([C@H](O)C(F)F)C3)cn2)cc1F.Cl [Example 3, (S)-1-((R)-3-amino-1-(4-((6-amino-9H-purin-9-yl)methyl)-6-(2,5-difluoro-4-methoxyphenyl)pyridin-3-yl)piperidin-3-yl)-2,2-difluoroethan-1-ol Hydrochloric Acid Salt] |  |  | solubility at 30 min ([2]; aqueous buffer, pH 7.0 (phosphate buffer), 37° C., after 30 minutes, read-out: water solubility of (S)-1-((R)-3-amino-1-(4-((6-amino-9H-purin-9-yl)methyl)-6-(2,5-difluoro-4-methoxyphenyl)pyridin-3-yl)piperidin-3-yl)-2,2-difluoroethan-1-ol): 1170 µg/mL
4 | COc1cc(F)c(-c2cc(Cn3cnc4c(N)ncnc43)c(N3CCC[C@](N)([C@H](O)C(F)F)C3)cn2)cc1F [Example 4, (S)-1-((R)-3-amino-1-(4-((6-amino-9H-purin-9-yl)methyl)-6-(2,5-difluoro-4-methoxyphenyl)pyridin-3-yl)piperidin-3-yl)-2,2-difluoroethan-1-ol Hydrochloric Acid Salt] |  | 360 µg/mL | 
5 | COc1cc(F)c(-c2cc(Cn3cnc4c(N)ncnc43)c(N3CCC[C@](N)([C@H](O)C(F)F)C3)cn2)cc1F [Example 5, (S)-1-((R)-3-amino-1-(4-((6-amino-9H-purin-9-yl)methyl)-6-(2,5-difluoro-4-methoxyphenyl)pyridin-3-yl)piperidin-3-yl)-2,2-difluoroethan-1-ol Sulfuric Acid Salt] | 6.0% |  | 
6 | COc1cc(F)c(-c2cc(Cn3cnc4c(N)ncnc43)c(N3CCC[C@](N)([C@H](O)C(F)F)C3)cn2)cc1F [Example 6, (S)-1-((R)-3-amino-1-(4-((6-amino-9H-purin-9-yl)methyl)-6-(2,5-difluoro-4-methoxyphenyl)pyridin-3-yl)piperidin-3-yl)-2,2-difluoroethan-1-ol Sulfuric Acid Salt] |  | 780 µg/mL | 
7 | COc1cc(F)c(-c2cc(Cn3cnc4c(N)ncnc43)c(N3CCC[C@](N)([C@H](O)C(F)F)C3)cn2)cc1F [Example 8, (S)-1-((R)-3-amino-1-(4-((6-amino-9H-purin-9-yl)methyl)-6-(2,5-difluoro-4-methoxyphenyl)pyridin-3-yl)piperidin-3-yl)-2,2-difluoroethan-1-ol Succinic Acid Salt] |  | 1670 µg/mL | 
8 | COc1cc(F)c(-c2cc(Cn3cnc4c(N)ncnc43)c(N3CCC[C@](N)([C@H](O)C(F)F)C3)cn2)cc1F [Example 10, Crystalline L-Malic Acid Salt of (S)-1-((R)-3-amino-1-(4-((6-amino-9H-purin-9-yl)methyl)-6-(2,5-difluoro-4-methoxyphenyl)pyridin-3-yl)piperidin-3-yl)-2,2-difluoroethan-1-ol] |  | 1530 µg/mL | 
9 | COc1cc(F)c(-c2cc(Cn3cnc4c(N)ncnc43)c(N3CCC[C@](N)([C@H](O)C(F)F)C3)cn2)cc1F [Example 11, Crystalline L-Tartaric Acid Salt of (S)-1-((R)-3-amino-1-(4-((6-amino-9H-purin-9-yl)methyl)-6-(2,5-difluoro-4-methoxyphenyl)pyridin-3-yl)piperidin-3-yl)-2,2-difluoroethan-1-ol] |  | 540 µg/mL | 
